Data: PubChem BioAssay (NCI)
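Tested at 5 concentrations; 48 h exposure; 96-well plates; endpoints linearly interpolated, else capped at highest concentration. GI50 marks 50% less growth. TGI: total growth inhibition.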

Legend:
Test in all cases: NCI-60 cell line screen, 48 h
[1] = tested on: A549 NSCLC
[2] = tested on: RPMI-8226 leukemia
[3] = tested on: RXF 393 renal
[4] = tested on: OVCAR-5 ovarian
[5] = tested on: SK-MEL-5 melanoma
[6] = tested on: LOX IMVI melanoma
[7] = tested on: MDA-MB-435
[8] = tested on: CCRF-CEM leukemia
[9] = tested on: SK-MEL-28 melanoma
[10] = tested on: HCT-15 colon
[11] = tested on: MOLT-4 leukemia
[12] = tested on: M14 melanoma
[13] = tested on: NCI-H460 lung

Structure (SMILES) | TGI [1] | TGI [2] | TGI [3] | TGI [4] | TGI [5] | TGI [6] | TGI [7] | TGI [8] | TGI [9] | TGI [10] | TGI [11] | TGI [12] | TGI [13] | GI50 [1] | GI50 [2] | GI50 [6] | GI50 [7] | GI50 [8] | GI50 [10] | GI50 [11]
Cc1ccc(C(=O)Nc2ccc(CP(=O)(O)O)cc2)cc1NC(=O)c1cccc(N)c1 | > 100 µM | > 100 µM | > 100 µM | > 100 µM | > 100 µM | > 100 µM | > 100 µM | > 100 µM | > 100 µM | > 100 µM | > 100 µM | > 100 µM |  |  |  |  |  |  |  | 
COCCN(CCNC(=O)c1cccc2c(N)c3cccc(C)c3nc12)CCOC | 8.48 µM | 5.91 µM | 5.96 µM | 15.6 µM | 2.65 µM | 3.27 µM | 11 µM | > 26.2 µM | > 41.1 µM | 13 µM | 2.38 µM | 2.7 µM | 7.11 µM |  |  |  |  |  |  | 
CC1(c2sccc2Cl)CC(c2sccc2Cl)=C(C#N)C(=C(C#N)C#N)N1 (stereo unspecified) | 75.6 µM | 88 µM | 42.4 µM | 41.7 µM | 33.3 µM | 37.8 µM | 48.3 µM | > 100 µM | 34.8 µM | 35 µM | > 100 µM | 42.7 µM | 43.6 µM |  |  |  |  |  |  | 
CN(C)c1ccc(/C=C/c2ccc(S(N)(=O)=O)cc2)cc1 | 26.2 µM | > 100 µM | > 100 µM | 53.6 µM | 25.8 µM | > 100 µM | 23.7 µM | > 100 µM | 28 µM | 74.1 µM | > 100 µM | 35.9 µM | > 100 µM | 10.1 µM | 11.6 µM | 18.7 µM | 7.63 µM | 46 µM | 17.1 µM | > 100000 nM
NNC(=O)CC(=O)Nc1cccc(Cl)c1 | > 100 µM | > 100 µM | > 100 µM | > 100 µM | > 100 µM | > 100 µM | > 100 µM | > 100 µM | > 100 µM | > 100 µM | > 100 µM |  | > 100 µM |  |  |  |  |  |  | 
C=CC(O)(CBr)CCC(Br)C(=C)C (stereo unspecified) | > 10 µM | > 10 µM | > 10 µM | > 10 µM | > 10 µM | > 10 µM | > 10 µM | > 10 µM | > 10 µM | > 10 µM | > 10 µM | > 10 µM | > 10 µM |  |  |  |  |  |  | 
CCOC(=O)C(NC(=O)c1ccccc1)(Nc1ccc(S(=O)(=O)Nc2ncccn2)cc1)C(F)(F)F (stereo unspecified) | > 100 µM | > 100 µM | > 100 µM | > 100 µM | > 100 µM | > 100 µM | > 100 µM | > 100 µM | > 100 µM | > 100 µM | > 100 µM | > 100 µM | > 100 µM |  |  |  |  |  |  | 
CCOC(=O)c1nc2ccc(C(F)(F)F)cc2nc1Nc1cc(OC)c(OC)c(OC)c1 | > 100 µM | > 100 µM | > 100 µM | > 100 µM | > 100 µM | > 100 µM | > 100 µM | > 100 µM | > 100 µM | > 100 µM | > 100 µM | > 100 µM | > 100 µM |  |  |  |  |  |  | 
COc1cc(C)c(/C=C2/N=C(c3ccccc3)OC2=O)c([N+](=O)[O-])c1OC | > 100 µM | > 100 µM | > 100 µM | > 100 µM |  | > 100 µM | > 100 µM | > 100 µM | > 100 µM | > 100 µM | > 100 µM | > 100 µM | > 100 µM |  |  |  |  |  |  | 
CC(Oc1ccccc1Cl)C(=O)NN1C(=O)CC(=O)N(c2ccccc2)C1=S (stereo unspecified) | > 100 µM | > 100 µM | > 100 µM | > 100 µM | > 100 µM | > 100 µM | > 100 µM |  | > 100 µM | > 100 µM | > 100 µM | > 100 µM | > 100 µM |  |  |  |  |  |  | 
CSC1NC(c2ccccc2)=C(C#N)C(=O)N1C1OCC(OC(C)=O)C(OC(C)=O)C1OC(C)=O (stereo unspecified) | > 100 µM | > 100 µM | > 100 µM | > 100 µM | > 100 µM | > 100 µM | > 100 µM |  | > 100 µM | > 100 µM | > 100 µM | > 100 µM | > 100 µM |  |  |  |  |  |  | 
COC(=O)C1CCC(=S)N1C(=O)OCc1ccccc1 (stereo unspecified) | > 100 µM | > 100 µM | > 100 µM | > 100 µM | > 100 µM |  | > 100 µM | > 100 µM | > 100 µM | > 100 µM | > 100 µM | > 100 µM | > 100 µM |  |  |  |  |  |  | 
COc1ccc([N+](=O)[O-])c2c(NCCCN(C)C)ccnc12 | 23.8 µM | 6.53 µM | 8.32 µM | 42.4 µM | 5.22 µM | 31 µM | 23.1 µM | 61.9 µM | > 100 µM | 4.95 µM | 8.12 µM | 20.8 µM | 5.63 µM |  |  |  |  |  |  | 
CCOC(=O)c1cc(-n2nnc3ccccc32)cn1C | > 10 µM | > 10 µM | > 10 µM | > 10 µM | > 10 µM | > 10 µM | > 10 µM | > 10 µM | > 10 µM | > 10 µM | > 10 µM | > 10 µM | > 10 µM |  |  |  |  |  |  | 
CN(CC(=O)O)c1ncc2c(n1)C=CCC2 | > 100 µM | > 100 µM | > 100 µM | > 100 µM | > 100 µM | > 100 µM | > 100 µM | > 100 µM | > 100 µM | > 100 µM | > 100 µM | > 100 µM | > 100 µM |  |  |  |  |  |  | 
NS(=O)(=O)c1nnc(NC(=O)C23CC4CC(CC(C4)C2)C3)s1 | > 100 µM | > 100 µM | > 100 µM | > 100 µM | > 100 µM | > 100 µM | > 100 µM |  | > 100 µM | > 100 µM | > 100 µM | > 100 µM | > 100 µM |  |  |  |  |  |  | 
CCOC(=O)/C=C(\C(=O)OCC)n1ccc(=O)n(Cc2cnnn2CCCCOC(C)=O)c1=O | 40.2 µM | > 22.5 µM | 2.16 µM | 29.4 µM | 30.2 µM | 17.6 µM | 22.9 µM |  | 21.4 µM | 20.3 µM | 5.19 µM | 38.8 µM | 26 µM |  |  |  |  |  |  | 2230 nM
